# In patent US20020192286A1, “Biodegradable triblock copolymers as solubilizing agents for drugs and method of use thereof” (Macromed, Incorporated, priority 2001, published 2002):
# Experiments:
# [1] = cited from earlier work
# [2] = Behaviour of the polymer solution in aqueous liquid at 35-42° C.; type: physicochemical; details: copolymer with drug; between at least 35-42° C.
# Description: PEG (Mw=1450; 476.2 g) was dried under vacuum (1 mmHg) at 130° C. for 5 hours. D,L-Lactide (412.9 grams) and glycolide (110.9 grams) were added to the flask and heated to 145° C. to afford a homogenous solution. Polymerization was initiated by the addition of 250 mg stannous octoate to the reaction mixture. After maintaining the reaction for five hours at 145° C., the reaction was stopped and the flask was cooled to room temperature. Unreacted lactide and glycolide were removed by vacuum distillation. […] The copolymer was purified twice by dissolving in water to afford a 25% solution, and letting the solution stir overnight at room temperature followed by elevating the solution temperature to 70° C. to precipitate the polymer. Excess water was removed by freeze drying. […] The GPC was performed on two Phenogel columns (300×7.8), 500 Å, and a mixed bed, connected in series. Mobile phase was tetrahydrofuran. Calibration was with PEG standards. Detection was by refractive index.
# [3] = Solubility of amphotericin B in 23 wt % triblock copolymer solution; type: physicochemical
# Description: Triblock copolymer of Example 2 (entry number 1) was used. The drug was mixed with the copolymer solution (23 wt % copolymer in water). The mixture was allowed to stand for 30 minutes before filtration.
# [4] = physchem
# Description: Triblock copolymers of Example 2 were used. The neat polymer and the drug were mixed and gently heated (ca. 50° C.) to completely dissolve the drug. Water was added to the mixture to afford a 23% by weight aqueous solution of the triblock copolymers. The solution was allowed to stand for 30 minutes before filtration (0.2 μm pore size filter).
# [5] = physchem; remark: listed apart in the source
# Description: Polymer solutions containing 23% by weight of the copolymer were prepared in water, and paclitaxel was added to the solution and the mixture was stirred for approximately 20 minutes.
Structure (SMILES),reported solubility in pure water [1] [µg/mL],state of polymer solution containing drug when mixed with an aqueous liquid [2],"solubility in the aqueous triblock copolymer solution ([3]; 23 wt % copolymer of Example 2 entry number 1 in water, 30 minutes, filtered) [µg/mL]",increase of solubility ([3]; copolymer solution versus pure water) [fold],"solubility at 30 min ([4]; 25 °C, aqueous with cosolvent or surfactant or cyclodextrin, Drug Solubility) [µg/mL]",Drug Solubility ([4]; 30 min) [µg/mL],"solubility ([4]; water, water solubility) [µg/mL]",increase of solubility [5],"solubility ([5]; aqueous with cosolvent or surfactant or cyclodextrin, thermodynamic from solid) [µg/mL]",solubility ([5]; water) [µg/mL]
C[C@@H]1[C@H](O)[C@@H](C)/C=C/C=C/C=C/C=C/C=C/C=C/C=C/[C@H](O[C@@H]2O[C@H](C)[C@@H](O)[C@H](N)[C@@H]2O)C[C@@H]2O[C@](O)(C[C@@H](O)C[C@@H](O)[C@H](O)CC[C@@H](O)C[C@@H](O)CC(=O)O[C@H]1C)C[C@H](O)[C@H]2C(=O)O [amphotericin B],3,remained as a free flowing liquid,150,50,–,–,–,–,–,–
COC1=CC(=O)C[C@@H](C)[C@]12Oc1c(Cl)c(OC)cc(OC)c1C2=O [griseofulvin],–,remained as free flowing liquids,–,–,1500,1570,10,–,–,–
CC(=O)O[C@H]1C(=O)[C@@]2(C)[C@H]([C@H](OC(=O)c3ccccc3)[C@]3(O)C[C@H](OC(=O)[C@H](O)[C@@H](NC(=O)c4ccccc4)c4ccccc4)C(C)=C1C3(C)C)[C@]1(OC(C)=O)CO[C@@H]1C[C@@H]2O [paclitaxel],–,remained as a free flowing liquid,–,–,–,–,–,at least 5000 fold,> 25000,~5
